Laboratory results from ChEMBL document CHEMBL6083255, “Synthesis and biological evaluation of novel isobenzofuran-1(3H)-one derivatives as antidepressant agents” (2024).
Active and inactive are the calls of the source. The calls are words filed in the database; no cut-off is given here.

What was measured:
CHO-K1 [1] = assay: Agonist activity at mu opioid receptor in CHO-K1 cells assessed as increase in intracellular fluorescence intensity at 30 uM incubated for 90 sec by microplate reader assay; type: cell-based; settings: Cricetulus griseus, filed as agonist
RBL-2H3 [2] = assay: Cytotoxicity against Wistar rat RBL-2H3 cells assessed as cell viability at 1 uM incubated for 24 hrs by MTT assay; type: functional; settings: read-out: Activity
RBL-2H3 [3] = assay: Cytotoxicity against Wistar rat RBL-2H3 cells assessed as cell viability at 5 uM incubated for 24 hrs by MTT assay; type: functional; settings: read-out: Activity
RBL-2H3 [4] = assay: Cytotoxicity against Wistar rat RBL-2H3 cells assessed as cell viability at 25 uM incubated for 24 hrs by MTT assay; type: functional; settings: read-out: Activity
RBL-2H3 [5] = assay: Cytotoxicity against Wistar rat RBL-2H3 cells assessed as cell viability at 125 uM incubated for 24 hrs by MTT assay; type: functional; settings: read-out: Activity
[6] = target: Sodium-dependent serotonin transporter (Rattus norvegicus) (UniProt P31652); assay: Inhibition of SERT in Wistar rat RBL-2H3 cells assessed as decrease in fluorescence intensity at 10 uM preincubated for 2 hrs followed by APP+ addition and measured after 1 hr by fluorescence based assay; type: cell-based; settings: time 3.0 hrs
Sequence of Sodium-dependent serotonin transporter (Rattus norvegicus) (P31652 whole entry): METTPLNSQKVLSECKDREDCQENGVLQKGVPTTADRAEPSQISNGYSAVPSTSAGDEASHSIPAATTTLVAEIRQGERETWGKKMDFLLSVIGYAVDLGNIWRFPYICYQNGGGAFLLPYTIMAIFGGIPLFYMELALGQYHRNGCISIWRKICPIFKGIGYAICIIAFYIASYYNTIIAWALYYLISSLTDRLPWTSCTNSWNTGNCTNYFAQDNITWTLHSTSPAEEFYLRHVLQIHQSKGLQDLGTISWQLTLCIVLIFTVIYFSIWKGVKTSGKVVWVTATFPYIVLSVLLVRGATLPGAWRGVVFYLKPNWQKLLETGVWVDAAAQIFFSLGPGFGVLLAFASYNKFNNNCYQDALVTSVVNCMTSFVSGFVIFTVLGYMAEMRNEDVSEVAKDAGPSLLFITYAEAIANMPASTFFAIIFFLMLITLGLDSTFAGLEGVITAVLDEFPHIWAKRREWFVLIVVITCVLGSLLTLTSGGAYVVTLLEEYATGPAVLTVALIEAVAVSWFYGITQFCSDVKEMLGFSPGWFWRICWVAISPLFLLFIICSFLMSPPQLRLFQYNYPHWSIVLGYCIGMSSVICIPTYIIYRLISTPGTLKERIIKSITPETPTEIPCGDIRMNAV

CHO-K1 [7] = assay: Agonist activity at mu opioid receptor in CHO-K1 cells assessed as increase in intracellular fluorescence intensity at 50 uM incubated for 90 sec by microplate reader assay; type: cell-based; settings: Cricetulus griseus
CHO-K1 [8] = assay: Antagonist activity at mu opioid receptor in CHO-K1 cells assessed as intracellular fluorescence intensity at 50 uM incubated for 2 mins by microplate reader assay; type: cell-based; settings: Cricetulus griseus
CHO-K1 [9] = assay: Agonist activity at CCK-B receptor in CHO-K1 cells incubated for 90 sec by microplate reader assay; type: cell-based; settings: Cricetulus griseus
CHO-K1 [10] = assay: Antagonist activity at CCK-B receptor in CHO-K1 cells at 50 uM incubated for 90 sec by microplate reader assay; type: cell-based; settings: Cricetulus griseus
RBL-2H3 [11] = assay: Cytotoxicity against Wistar rat RBL-2H3 cells assessed as cell viability over 20 uM by MTT assay; type: functional, cell-based
RBL-2H3 [12] = assay: Induction of cell death in Wistar rat RBL-2H3 cells assessed as cell viability over 20 uM by MTT assay; type: functional, cell-based

| Compound | Activity (CHO-K1 [1]) | viability at 1 µM (RBL-2H3 [2]) [%] | viability at 5 µM (RBL-2H3 [3]) [%] | viability at 25 µM (RBL-2H3 [4]) [%] | viability at 125 µM (RBL-2H3 [5]) [%] | Activity [6] | Activity (CHO-K1 [7]) | Activity (CHO-K1 [8]) | Activity (CHO-K1 [9]) | Activity (CHO-K1 [10]) | Activity (RBL-2H3 [11]) | Activity (RBL-2H3 [12]) | Activity (CHO-K1 [8]; filed as antagonist) |
| --- | --- | --- | --- | --- | --- | --- | --- | --- | --- | --- | --- | --- | --- |
| C[C@@H](NC(=O)[C@@H](N)Cc1ccc(O)cc1)C(=O)NCC(=O)N(C)[C@@H](Cc1ccccc1)C(=O)NCCO | Active | – | – | – | – | – | – | – | – | – | – | – | – |
| CCN(CC)CC1(c2ccccc2)OC(=O)c2ccccc21 (stereo not drawn) | – | 106 | 113 | 125 | 127 | Active | – | – | – | – | – | – | – |
| O=C1OC(CN2CCCCCC2)(c2ccc(Cl)cc2)c2ccccc21 (stereo not drawn) | – | 104 | 109 | 119 | 144 | Active | – | – | – | – | – | – | – |
| O=C1OC(CN2CCCCC2)(c2ccc(Cl)cc2)c2ccccc21 (stereo not drawn) | – | 97.5 | 98.1 | 107 | 125 | Active; Activity Stronger Than Fluoxetine | inactive | inactive | inactive | inactive | – | – | – |
| O=C1OC(CN2CCCCCC2)(c2ccccc2)c2ccccc21 (stereo not drawn) | – | 97.8 | 101 | 95.5 | 100 | Active; Activity Stronger Than Fluoxetine | inactive | inactive | inactive | inactive | – | – | – |
| CCOC(=O)C1CCN(CC2(c3ccccc3)OC(=O)c3ccccc32)CC1 (stereo not drawn) | – | 99.7 | 105 | 130 | 178 | inactive | – | – | – | – | – | – | – |
| CC(=O)N1CCN(CC2(c3ccc(Cl)cc3)OC(=O)c3ccccc32)CC1 (stereo not drawn) | – | 99.8 | 106 | 125 | 141 | Active | – | – | – | – | – | – | – |
| CNCCC(Oc1ccc(C(F)(F)F)cc1)c1ccccc1 (stereo not drawn) | – | – | – | – | – | Active | – | – | – | – | Active | Active | – |
| CCOC(=O)C1CCN(CC2(c3ccc(C)cc3)OC(=O)c3ccccc32)CC1 (stereo not drawn) | – | 102 | 108 | 125 | 157 | inactive | – | – | – | – | – | – | – |
| Cc1ccc(C2(CN3CCCC(C)C3)OC(=O)c3ccccc32)cc1 (stereo not drawn) | – | 97.6 | 101 | 121 | 157 | inactive | – | – | – | – | – | – | – |
| CC1CCCN(CC2(c3ccc(Cl)cc3)OC(=O)c3ccccc32)C1 (stereo not drawn) | – | 99.2 | 98 | 102 | 104 | Active | – | – | – | – | – | – | – |
| CC(=O)N1CCN(CC2(c3ccccc3)OC(=O)c3ccccc32)CC1 (stereo not drawn) | – | 102 | 109 | 129 | 165 | inactive | – | – | – | – | – | – | – |
| O=C1OC(CN2CCCCC2)(c2ccccc2)c2ccccc21 (stereo not drawn) | – | 99.2 | 102 | 118 | 112 | Active | – | – | – | – | – | – | – |
| Cc1ccc(C2(CN3CCCC3)OC(=O)c3ccccc32)cc1 (stereo not drawn) | – | 94.8 | 95.5 | 100 | 122 | Active | – | – | – | – | – | – | – |
| O=C1OC(CN2CCCC2)(c2ccccc2)c2ccccc21 (stereo not drawn) | – | 119 | 139 | 133 | 181 | Active | – | – | – | – | – | – | – |
| Cc1ccc(C2(CN3CCCCCC3)OC(=O)c3ccccc32)cc1 (stereo not drawn) | – | 98.8 | 106 | 140 | 171 | inactive | – | – | – | – | – | – | – |
| CC(=O)N1CCN(CC2(c3ccc(C)cc3)OC(=O)c3ccccc32)CC1 (stereo not drawn) | – | 93.3 | 97.2 | 119 | 120 | Active | – | – | – | – | – | – | – |
| Cc1ccc(C2(CN3CCCCC3)OC(=O)c3ccccc32)cc1 (stereo not drawn) | – | 101 | 98.4 | 99 | 108 | Active | – | – | – | – | – | – | – |
| CCOC(=O)C1CCN(CC2(c3ccc(Cl)cc3)OC(=O)c3ccccc32)CC1 (stereo not drawn) | – | 99 | 97 | 96.4 | 99 | inactive | – | – | – | – | – | – | – |
| C=CCN1CC[C@]23c4c5ccc(O)c4O[C@H]2C(=O)CC[C@@]3(O)[C@H]1C5 | – | – | – | – | – | – | – | – | – | – | – | – | Active |
| CC1CCCN(CC2(c3ccccc3)OC(=O)c3ccccc32)C1 (stereo not drawn) | – | 92.7 | 101 | 116 | 141 | Active | – | – | – | – | – | – | – |
| CCN(CC)CC1(c2ccc(C)cc2)OC(=O)c2ccccc21 (stereo not drawn) | – | 101 | 106 | 123 | 160 | Active | – | – | – | – | – | – | – |
